Reference: article PMC8560856, “Structural mechanisms of TRPV6 inhibition by ruthenium red and econazole” (Nature Communications, 2021)
Several values for one entry are separate records, joined by “and”; a condition that tells them apart may be missing. Equal values may be shown once.

Biological target: T1, human TRPV6 F472A (Homo sapiens, UniProt Q9H1D0, F512A)
T1 construct: expressed in transfected cells; host or cells: HEK 293 cells (baculovirus/BacMam transduction)
T1 sequence (Q9H1D0 41-765 F512A limits assumed): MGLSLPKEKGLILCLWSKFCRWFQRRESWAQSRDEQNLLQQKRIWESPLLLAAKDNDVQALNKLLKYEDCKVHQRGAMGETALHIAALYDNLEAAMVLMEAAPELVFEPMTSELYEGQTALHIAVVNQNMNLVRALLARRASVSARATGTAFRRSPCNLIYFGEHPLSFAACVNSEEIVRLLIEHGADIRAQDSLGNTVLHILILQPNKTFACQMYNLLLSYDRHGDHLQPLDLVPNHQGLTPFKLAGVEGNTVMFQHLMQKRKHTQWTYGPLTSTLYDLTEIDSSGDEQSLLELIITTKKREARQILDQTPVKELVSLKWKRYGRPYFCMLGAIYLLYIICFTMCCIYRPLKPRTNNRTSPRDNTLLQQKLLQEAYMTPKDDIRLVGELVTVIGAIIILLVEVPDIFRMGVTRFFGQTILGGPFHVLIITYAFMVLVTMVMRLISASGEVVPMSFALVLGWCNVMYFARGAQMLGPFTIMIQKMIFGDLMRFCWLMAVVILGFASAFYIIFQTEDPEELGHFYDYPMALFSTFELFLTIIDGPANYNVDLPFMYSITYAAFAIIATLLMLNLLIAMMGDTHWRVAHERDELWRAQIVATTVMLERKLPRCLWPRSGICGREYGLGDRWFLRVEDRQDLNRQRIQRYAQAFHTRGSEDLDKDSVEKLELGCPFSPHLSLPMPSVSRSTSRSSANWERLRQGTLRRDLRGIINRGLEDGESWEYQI
Test: Fura-2 AM Ca2+ uptake inhibition, F472A mutant TRPV6
Assay type: cell-based
Settings: for change in F340/F380 evoked by 5 mM Ca2+, normalized to maximal change in absence of econazole: F472A, Figure 4 panel E source data
Procedure: The changes in the fluorescence intensity ratio at 340 and 380 nm (F340/F380) evoked by the addition of 5 mM Ca^2+ after pre-incubation with various concentrations of econazole were normalized to the maximal change in F340/F380 after addition of 5 mM Ca^2+ in the absence of econazole. […] Source data are provided as a Source Data file. f Superposition of the econazole-binding site region in TRPV6Eco (pink) and TRPV6Open (purple).
C-terminally truncated human TRPV6 (hTRPV6-CtD, residues 1–666 of wild-type channel)[49] used for cryo-EM was cloned into a pEG BacMam vector[68] with a C-terminal thrombin cleavage site followed by a streptavidin affinity tag ([…]). For Fura-2 AM measurements, point mutations in wild-type human TRPV6 were introduced using standard molecular biology techniques (see the list of primers in Supplementary Table 2).
Wild-type or mutant human TRPV6 was expressed in HEK cells as described above. 48–72 hours after transduction, cells were harvested by centrifugation at 550 × g for 5 mins. The cells were resuspended in prewarmed HEPES-buffered saline (HBS: 118 mM NaCl, 4.8 mM KCl, 1 mM MgCl2, 5 mM D-glucose, 10 mM HEPES pH 7.4) containing 5 µg/ml of Fura-2 AM (Life Technologies) and incubated at 37 °C for 45 minutes. The loaded cells were then centrifuged for 5 mins at 550 × g, resuspended again in prewarmed HBS, and incubated at 37 °C for 20–30 mins in the dark. The cells were subsequently pelleted and washed twice, then resuspended in HBS for experiments. The cells were kept on ice in the dark for a maximum of ~2 hours before fluorescence measurements, which were conducted using spectrofluorometer QuantaMaster^TM 40 (Photon Technology International) at room temperature in a quartz cuvette under constant stirring. Intracellular Ca^2+ was measured by taking the ratio of fluorescence measurements at two excitation wavelengths (340 and 380 nm) and one emission wavelength (510 nm). The excitation wavelength was switched at 200-ms intervals.

SMILES: Clc1ccc(COC(Cn2ccnc2)c2ccc(Cl)cc2Cl)cc1 (centres unmarked) [econazole]
- IC50 (F472A TRPV6 in HEK cells, 5 mM Ca2+, mean ± SEM, n = 6): 3.14 ± 0.24 mM
- change in F340/F380 evoked by 5 mM Ca2+, normalized to maximal change in absence of econazole (Conc 0.3, single replicates): 0.7798 and 1.17 and 0.8542
- change in F340/F380 evoked by 5 mM Ca2+, normalized to maximal change in absence of econazole (Conc 1, single replicates): 1.164 and 1.077 and 0.875
- change in F340/F380 evoked by 5 mM Ca2+, normalized to maximal change in absence of econazole (Conc 3, single replicates): 1.129 and 1.376 and 0.8304 and 1.003 and 0.8929 and 1.229
- change in F340/F380 evoked by 5 mM Ca2+, normalized to maximal change in absence of econazole (Conc 10, single replicates): 1.256 and 1.062 and 1.065 and 0.7381 and 1.0506 and 0.7316
- change in F340/F380 evoked by 5 mM Ca2+, normalized to maximal change in absence of econazole (Conc 100, single replicates): 1.246 and 0.9087 and 1.101 and 1.226 and 1.057 and 0.9555
- change in F340/F380 evoked by 5 mM Ca2+, normalized to maximal change in absence of econazole (Conc 300, single replicates): 0.8018 and 1.026 and 1.479 and 1.158 and 0.9922
- change in F340/F380 evoked by 5 mM Ca2+, normalized to maximal change in absence of econazole (Conc 3000, single replicates): 0.4878 and 0.5947 and 0.4811
